Measured values from patent US20190367567A1 (priority 2016, published 2019).
Where a SMILES comes first, the peptide text is derived from it.

Assays:
PR8 virus = test system: PR8 virus; design: species or system influenza A virus
[1] = molecular target: H1 HA of A/Puerto Rico/8/1934 H1N1 influenza virus (influenza A virus A/Puerto Rico/8/1934 H1N1) (UniProt P03452); test: cell-based or functional assay
[2] = test system: human H1N1 influenza A virus A/Puerto Rico/8/1934 (PR8); settings: human virus A/Puerto Rico/8/1934 (PR8)

Molecule: OVA257-264 peptide [OVA peptide]
- integrity of virus particles by electron microscopy (PR8 virus): appear intact

Molecule: Urumin (peptide)
- IC50, plaque assay against PR8 virus [1]: 3.8 µM

Molecule: CC[C@H](C)[C@H](NC(=O)CNC(=O)[C@H](CC(C)C)NC(=O)CNC(=O)[C@H](C)NC(=O)CNC(=O)[C@H](CCCCN)NC(=O)[C@H](C)NC(=O)[C@@H](NC(=O)CNC(=O)[C@@H](NC(=O)[C@H](C)NC(=O)[C@@H](NC(=O)[C@H](CC(=O)O)NC(=O)[C@H](CCCCN)NC(=O)[C@H](CC(C)C)NC(=O)[C@H](CCCCN)NC(=O)[C@@H](NC(=O)[C@@H](NC(=O)[C@H](Cc1ccccc1)NC(=O)[C@@H](N)CO)C(C)C)[C@@H](C)O)C(C)C)[C@@H](C)CC)C(C)C)C(=O)N[C@@H](CC(C)C)C(=O)N[C@@H](CCCCN)C(=O)N[C@H](C(=O)N[C@@H](CC(C)C)C(=O)N[C@H](C(=O)N[C@@H](CS)C(=O)N[C@@H](CCCCN)C(=O)N[C@@H](CC(C)C)C(=O)N[C@@H](CC(=O)O)C(=O)N[C@@H](CC(N)=O)C(=O)N[C@@H](CO)C(=O)N[C@@H](CS)C(=O)N[C@@H](C)C(=O)O)[C@@H](C)O)[C@@H](C)O [Peptide 28] (H-SFVTKLKDVAIGVAKGAGLGILKTLTCKLDNSCA-OH)
- hemolytic activity (human erythrocytes; at 10 μM): hemolytic activity

Molecule: CC[C@H](C)[C@H](N)C(=O)N1CCC[C@H]1C(=O)N[C@@H](CC(C)C)C(=O)N[C@@H](CCCNC(=N)N)C(=O)NCC(=O)N[C@@H](C)C(=O)N[C@@H](Cc1ccccc1)C(=O)N[C@H](C(=O)N[C@@H](CC(N)=O)C(=O)NCC(=O)N[C@@H](CCCNC(=N)N)C(=O)N[C@@H](Cc1c[nH]c2ccccc12)C(=O)N[C@@H](CC(=O)O)C(=O)N[C@@H](CO)C(=O)N[C@@H](CCC(N)=O)C(=O)N[C@@H](CS)C(=O)N[C@@H](Cc1c[nH]cn1)C(=O)N[C@@H](CCCNC(=N)N)C(=O)N[C@@H](Cc1ccccc1)C(=O)N[C@@H](CO)C(=O)N[C@@H](CC(N)=O)C(=O)NCC(=O)N[C@@H](C)C(=O)N[C@H](C(=O)N[C@@H](C)C(=O)N[C@@H](CS)C(=O)N[C@@H](C)C(=O)O)[C@@H](C)CC)[C@@H](C)CC [Urumin] (H-IPLRGAFINGRWDSQCHRFSNGAIACA-OH)
- IC50 [2]: 3.8 µM
- concentration reaching a 20% level of toxicity (human erythrocytes): 1430 µM
- toxicity to human erythrocytes (hemolysis) (human erythrocytes): no toxicity
